{"source": "patent EP0936218B1", "about": "“BENZIMIDAZOLE DERIVATIVES” (MOCHIDA PHARMACEUTICAL CO., LTD., priority 1996, dated 1998)", "key": {"BALB/c male mice": {"system": "BALB/c male mice", "conditions": "mouse, in vivo, po, 100 mg/kg/day", "excerpt": "Toxicity of compounds of the present invention was examined."}, "[1]": {"system": "intraperitoneal eosinophilia", "test": "Action on intraperitoneal eosinophilia model mice (sensitized with swine roundworm extract)", "assay_type": "in vivo, BALB/c male mice", "conditions": "oral, once a day, 10 times, BALB/c mice", "protocol": "Using five animals per group of BALB/c male mice (about 25 g in body weight), 0.11 mL of physiological saline containing 0.1 mg of swine roundworm extract was administered into the peritoneal cavity of each mouse to sensitize. The same treatment was repeated 7 days after the administration and, 3 days thereafter, each animal was sacrificed by phlebotomy, 3 mL of physiological saline containing 1% dipotassium ethylenediaminetetraacetate (EDTA) was administered by intraperitoneal injection and its abdominal region was massaged for about 30 seconds. The abdominal region was incised to collect intraperitoneal fluid which was subsequently centrifuged at 130 x g for 10 minutes, and the resulting precipitate was mixed with 500 µl of fetal calf serum containing 1% EDTA to prepare a cell suspension. A portion of the cell suspension was daubed on a slide glass using a spinner to carry out Diff-Quik staining, and then total leukocytes and eosinophils were counted to calculate the ratio of eosinophils in the total leukocytes. The number of total leukocytes in the cell suspension was measured using an automatic blood cell counter. The number of eosinophils in the cell suspension was calculated by multiplying the ratio of eosinophils in the total leukocytes by the number of total leukocytes.\nEach of the compounds to be tested was suspended in 5% acacia aqueous solution and orally administered once a day for a total of 10 times starting immediately after the initial sensitization (test compound-administered group). Also, 5% acacia aqueous solution was orally administered to a group of mice in which sensitization and administration of test compounds were not carried out (non-treated group) and another group of mice in which sensitization was carried out but test compounds were not administered (control group).\nThe dose of each compound to be tested and the intraperitoneal eosinophilia inhibition rate calculated by the following formula are shown in Table 1. Eosinophilia inhibition rate (%) = {1 - (test compound- administered group - non-treated group)/(control group - non- treated group)} x 100 [formula]"}}}
{"smiles": "O=C(O)CC(=O)c1cccc2nc(CCc3ccccc3)[nH]c12", "note": "[Example 1, 3-(2-(2-phenylethyl)benzimidazol-4-yl)-3-oxopropanoic acid]", "values": [{"measurement": "mortal case", "setting": "BALB/c male mice", "value": "no mortal case was found"}, {"measurement": "Intraperitoneal eosinophilia inhibition rate (%)", "setting": "[1]; dose 3 mg/kg/day", "value": 67, "unit": "%"}, {"measurement": "Intraperitoneal eosinophilia inhibition rate (%)", "setting": "[1]; dose 30 mg/kg/day", "value": 78, "unit": "%"}]}
{"smiles": "COC(=O)CC(=O)c1cccc2nc(CCc3ccccc3)[nH]c12", "note": "[Example 2, methyl 3-(2-(2-phenylethyl)benzimidazol-4-yl)-3-oxopropanoate]", "values": [{"measurement": "mortal case", "setting": "BALB/c male mice", "value": "no mortal case was found"}, {"measurement": "Intraperitoneal eosinophilia inhibition rate (%)", "setting": "[1]; dose 100 mg/kg/day", "value": 42, "unit": "%"}]}
{"smiles": "CCOC(=O)CC(=O)c1cccc2nc(CCc3ccccc3)[nH]c12", "note": "[Example 3, ethyl 3-(2-(2-phenylethyl)benzimidazol-4-yl)-3-oxopropanoate]", "values": [{"measurement": "Intraperitoneal eosinophilia inhibition rate (%)", "setting": "[1]; dose 10 mg/kg/day", "value": 67, "unit": "%"}, {"measurement": "Intraperitoneal eosinophilia inhibition rate (%)", "setting": "[1]; dose 30 mg/kg/day", "value": 75, "unit": "%"}]}
{"smiles": "COC(=O)CC(O)c1cccc2nc(CCc3ccccc3)[nH]c12", "note": "(stereo not drawn) [Example 5, methyl 3-(2-(2-phenylethyl)benzimidazol-4-yl)-3-hydroxypropanoate]", "values": [{"measurement": "mortal case", "setting": "BALB/c male mice", "value": "no mortal case was found"}, {"measurement": "Intraperitoneal eosinophilia inhibition rate (%)", "setting": "[1]; dose 100 mg/kg/day", "value": 62, "unit": "%"}]}
{"smiles": "CCOC(=O)CC(O)c1cccc2nc(CCc3ccccc3)[nH]c12", "note": "(stereo not drawn) [Example 6, ethyl 3-(2-(2-phenylethyl)benzimidazol-4-yl)-3-hydroxypropanoate]", "values": [{"measurement": "Intraperitoneal eosinophilia inhibition rate (%)", "setting": "[1]; dose 3 mg/kg/day", "value": 35, "unit": "%"}, {"measurement": "Intraperitoneal eosinophilia inhibition rate (%)", "setting": "[1]; dose 10 mg/kg/day", "value": 59, "unit": "%"}]}
{"smiles": "O=C(O)CC(O)c1cccc2nc(CCc3ccccc3)[nH]c12", "note": "(stereo not drawn) [Example 7, 3-(2-(2-phenylethyl)benzimidazol-4-yl)-3-hydroxypropanoic acid]", "values": [{"measurement": "mortal case", "setting": "BALB/c male mice", "value": "no mortal case was found"}, {"measurement": "Intraperitoneal eosinophilia inhibition rate (%)", "setting": "[1]; dose 0.3 mg/kg/day", "value": 55, "unit": "%"}]}
{"smiles": "CCOC(=O)CC(=O)c1cccc2c1nc(CCc1ccccc1)n2C", "note": "[Example 10, ethyl 3-(1-methyl-2-(2-phenylethyl)benzimidazol-4-yl)-3-oxopropanoate]", "values": [{"measurement": "mortal case", "setting": "BALB/c male mice", "value": "no mortal case was found"}]}
{"smiles": "CC(=O)OCC(=O)[C@@]1(O)CC[C@H]2[C@@H]3CCC4=CC(=O)C=C[C@]4(C)[C@H]3[C@@H](O)C[C@@]21C", "note": "[Prednisolone acetate, 11β,17α,21-trihydroxypregna-1,4-diene-3,20-dione 21-acetate, reference compound]", "values": [{"measurement": "Intraperitoneal eosinophilia inhibition rate (%)", "setting": "[1]; dose 10 mg/kg/day", "value": "61 - 85%"}]}
